Test results reported in patent publication US20250145601A1, “NOVEL BICYCLIC COMPOUNDS AS RAD51 INHIBITORS” (SATYA THERAPEUTICS, INC., priority 2022, published 2025).

System: MDA MB 231 cells
Assay: Antiproliferation assay in MDA MB 231 cells (Cell Titer Glo)
Type: cell-based
Settings: MDAMB231 cell line, 9 day treatment; for inhibition at 10 µM: Homo sapiens, MDA-MB-231, 216 h
Experimental: Antiproliferation Assay in MDA MB 231 Cells MDA MB 231 cells were seeded in 96 well plate at a seeding density of 250 cells/well. The cells were allowed to settle overnight under standard incubator conditions (37° C., 5% CO2). Next day treatment with increasing dose of test compounds and reference compounds were done to the respective wells and the cells were further incubated under standard cell culture conditions for another 4 days. On the 5th day, media was replenished with fresh treatment and cells were incubated for a total of 9 day treatment period. On the day of termination, appropriate volume of Cell Titer Glo reagent was added to the treatment (and control) wells and the plates were kept on a plate shaker @300 RPM for 15 min. Luminiscence reading (RLU) was […] RLU is directly proportional to ATP content and is directly related to number of metabolically active cells in the respective well. Calculation: a. Blank Correction: RLU of the Wells Containing No Cells is Considered as Blank and Subtracted from all RLU of the Treated and Control Wells [formula]

[1] = separated enantiomers A/B (Table 3)

Row | SMILES | inhibition at 10 µM (racemic compounds (Table 2)) [%] | further results
1 | CCC(=O)N1N=C(c2c(C)c3ccsc3[nH]c2=O)CC1c1cnc(C)cc1Cl (centres unmarked) [Example 56, 5-(5-(4-chloro-6-methylpyridin-3-yl)-1-propionyl-4,5-dihydro-1H-pyrazol-3-yl)-4-methylthieno[2,3-b]pyridin-6(7H)-one] | ≥ 50 | –
2 | CCC(=O)N1N=C(c2c(C)c3cc(C)ncc3[nH]c2=O)CC1c1ccc(C)cc1 (centres unmarked) [Example 81, 4,6-dimethyl-3-(1-propionyl-5-(p-tolyl)-4,5-dihydro-1H-pyrazol-3-yl)-1,7-naphthyridin-2(1H)-one] | < 50 | –
3 | CCC(=O)N1N=C(c2c(C)c3ccsc3[nH]c2=O)CC1Cc1ccccc1 (centres unmarked) [Example 71, 5-(5-benzyl-1-propionyl-4,5-dihydro-1H-pyrazol-3-yl)-4-methylthieno[2,3-b]pyridin-6(7H)-one] | ≥ 50 | –
4 | CCC(=O)N1N=C(c2c(C)c3ccsc3[nH]c2=O)CC1c1cnc(C)cc1C (centres unmarked) [Example 50, 5-(5-(4,6-dimethylpyridin-3-yl)-1-propionyl-4,5-dihydro-1H-pyrazol-3-yl)-4-methylthieno[2,3-b]pyridin-6(7H)-one] | < 50 | –
5 | CCC(=O)N1N=C(c2c(C)c3ccc(Cl)cc3[nH]c2=O)CC1c1ccc(C)cc1 (single isomer, unassigned) [Example 80B] | – | % inhibition @ 10 μM [1]: + (≥50% +)
6 | CCC(=O)N1N=C(c2c(C)c3ccsc3[nH]c2=O)CC1c1ccc(CF)cc1 (centres unmarked) [Example 68, 5-(5-(4-(fluoromethyl)phenyl)-1-propionyl-4,5-dihydro-1H-pyrazol-3-yl)-4-methylthieno[2,3-b]pyridin-6(7H)-one] | ≥ 50 | –
7 | CCC(=O)N1N=C(c2c(C)c3ccsc3[nH]c2=O)CC1c1cnc(C)c(C)c1 (centres unmarked) [Example 54, 5-(5-(5,6-dimethylpyridin-3-yl)-1-propionyl-4,5-dihydro-1H-pyrazol-3-yl)-4-methylthieno[2,3-b]pyridin-6(7H)-one] | ≥ 50 | –
8 | CCC(=O)N1N=C(c2c(C)c3cc(Cl)ccc3[nH]c2=O)CC1c1ccc(OC)nc1 (centres unmarked) [Example 7, 6-chloro-3-(5-(6-methoxypyridin-3-yl)-1-propionyl-4,5-dihydro-1H-pyrazol-3-yl)-4-methylquinolin-2(1H)-one] | ≥ 50 | –
9 | CCC(=O)N1N=C(c2c(C)c3ccsc3[nH]c2=O)CC1c1ccc(Cl)cc1 (racemic) [Example 28, 5-(5-(4-chlorophenyl)-1-propionyl-4,5-dihydro-1H-pyrazol-3-yl)-4-methylthieno[2,3-b]pyridin-6(7H)-one] | ≥ 50 | –
10 | CCC(=O)N1N=C(c2c(C)c3ccsc3[nH]c2=O)CC1c1ccc(C)s1 (centres unmarked) [Example 41, 5-(5-(5-methylthiophen-2-yl)-1-propionyl-4,5-dihydro-1H-pyrazol-3-yl)-4-methylthieno[2,3-b]pyridin-6(7H)-one] | ≥ 50 | –
11 | CCC(=O)N1N=C(c2c(C)c3ccsc3[nH]c2=O)CC1c1cc(Br)cs1 (centres unmarked) [Example 34, 5-(5-(4-bromothiophen-2-yl)-1-propionyl-4,5-dihydro-1H-pyrazol-3-yl)-4-methylthieno[2,3-b]pyridin-6(7H)-one] | < 50 | –
12 | CCC(=O)N1N=C(c2c(C)c3ccncc3[nH]c2=O)CC1c1ccc(C)cc1 (single isomer, unassigned) [Example 74A] | – | inhibition at 10 µM [1]: ≥ 50%
13 | CCC(=O)N1N=C(c2c(C)c3ccsc3[nH]c2=O)CC1C1CCCCC1 (centres unmarked) [Example 58, 5-(5-cyclohexyl-1-propionyl-4,5-dihydro-1H-pyrazol-3-yl)-4-methylthieno[2,3-b]pyridin-6(7H)-one] | < 50 | –
14 | CCC(=O)N1N=C(c2c(C)c3ccc(N4CCN(C)CC4)cc3[nH]c2=O)CC1c1ccc(C)cc1 (racemic) [Example 82, 4-methyl-7-(4-methylpiperazin-1-yl)-3-(1-propionyl-5-(p-tolyl)-4,5-dihydro-1H-pyrazol-3-yl)quinolin-2(1H)-one] | ≥ 50 | –
15 | CCC(=O)N1N=C(c2c(C)c3ncccc3[nH]c2=O)CC1c1ccc(OC)cc1 (centres unmarked) [Example 9, 3-(5-(4-Methoxyphenyl)-1-propionyl-4,5-dihydro-1H-pyrazol-3-yl)-4-methyl-1,5-naphthyridin-2(1H)-one] | < 50 | –
16 | CCC(=O)N1N=C(c2c(C3CC3)c3cc(Cl)ccc3[nH]c2=O)CC1c1ccc(OC)cc1 (centres unmarked) [Example 23, 6-chloro-4-cyclopropyl-3-(5-(4-methoxyphenyl)-1-propionyl-4,5-dihydro-1H-pyrazol-3-yl)quinolin-2(1H)-one] | ≥ 50 | –
17 | CCC(=O)N1N=C(c2c(C)c3ccsc3[nH]c2=O)CC1c1ccncc1 (centres unmarked) [Example 35, 4-methyl-5-(1-propionyl-5-(pyridin-4-yl)-4,5-dihydro-1H-pyrazol-3-yl)thieno[2,3-b]pyridin-6(7H)-one] | < 50 | –
18 | CCC(=O)N1N=C(c2c(C)c3ccsc3[nH]c2=O)CC1c1ccc(C)nc1 (single isomer, unassigned) [Example 45A] | – | % inhibition @ 10 μM [1]: ++ (<50% ++)

Row | SMILES | inhibition at 10 µM (racemic compounds (Table 2)) [%] | further results
19 | CCC(=O)N1N=C(c2c(C)c3ccc(Cl)cc3[nH]c2=O)CC1c1ccc(C)cc1 (racemic) [Example 80, 7-chloro-4-methyl-3-(1-propionyl-5-(p-tolyl)-4,5-dihydro-1H-pyrazol-3-yl)quinolin-2(1H)-one] | ≥ 50 | –
20 | CCC(=O)N1N=C(c2c(C)c3ccsc3[nH]c2=O)CC1c1ccc(C)nc1 (racemic) [Example 45, 4-methyl-5-(5-(6-methylpyridin-3-yl)-1-propionyl-4,5-dihydro-1H-pyrazol-3-yl)thieno[2,3-b]pyridin-6(7H)-one] | ≥ 50 | –
21 | CCC(=O)N1N=C(c2c(C)c3ccsc3[nH]c2=O)CC1c1ccsc1 (single isomer, unassigned) [Example 33B] | – | inhibition at 10 µM [1]: < 50%
22 | CCC(=O)N1N=C(c2c(C)c3ccsc3[nH]c2=O)CC1c1ccc(OC)cn1 (centres unmarked) [Example 25, 5-(5-(5-methoxypyridin-2-yl)-1-propionyl-4,5-dihydro-1H-pyrazol-3-yl)-4-methylthieno[2,3-b]pyridin-6(7H)-one] | < 50 | –
23 | CCC(=O)N1N=C(c2c(C)c3cc(Cl)ncc3[nH]c2=O)CC1c1ccc(C)cc1 (centres unmarked) [Example 79, 6-chloro-4-methyl-3-(1-propionyl-5-(p-tolyl)-4,5-dihydro-1H-pyrazol-3-yl)-1,7-naphthyridin-2(1H)-one] | ≥ 50 | –
24 | CCC(=O)N1N=C(c2c(C)c3ccsc3[nH]c2=O)CC1c1ccc(OC)cc1 (racemic) [Example 20, 5-(5-(4-Methoxyphenyl)-1-propionyl-4,5-dihydro-1H-pyrazol-3-yl)-4-methylthieno-[2,3-b]pyridin-6(7H)-one] | ≥ 50 | –
25 | CCC(=O)N1N=C(c2c(C)c3cccnc3[nH]c2=O)CC1c1ccc(OC)cc1 (centres unmarked) [Example 13, 3-(5-(4-Methoxyphenyl)-1-propionyl-4,5-dihydro-1H-pyrazol-3-yl)-4-methyl-1,8-naphthyridin-2(1H)-one] | ≥ 50 | –
26 | CCC(=O)N1N=C(c2c(C)c3ccc(N4CCN(C)CC4)cc3[nH]c2=O)CC1c1ccc(C)cc1 (single isomer, unassigned) [Example 82A] | – | inhibition at 10 µM [1]: ≥ 50%
27 | CCC(=O)N1N=C(c2c(C)c3ccsc3[nH]c2=O)CC1c1cccnc1 (centres unmarked) [Example 36, 4-methyl-5-(1-propionyl-5-(pyridin-3-yl)-4,5-dihydro-1H-pyrazol-3-yl)thieno[2,3-b]pyridin-6(7H)-one] | < 50 | –
28 | COc1ccc(C2CC(c3c(C)c4cc(Cl)ccc4[nH]c3=O)=NN2C(=O)C2CCOCC2)cc1 (centres unmarked) [Example 3, 6-chloro-3-(5-(4-methoxyphenyl)-1-(tetrahydro-2H-pyran-4-carbonyl)-4,5-dihydro-1H-pyrazol-3-yl)-4-methylquinolin-2(1H)-one] | ≥ 50 | –
29 | CCC(=O)N1N=C(c2c(C)c3ccsc3[nH]c2=O)CC1c1ccc(C)cc1F (single isomer, unassigned) [Example 66A] | – | inhibition at 10 µM [1]: ≥ 50%
30 | CCC(=O)N1N=C(c2c(C)c3ccsc3[nH]c2=O)CC1c1csc(C)n1 (centres unmarked) [Example 48, 4-methyl-5-(5-(2-methylthiazol-4-yl)-1-propionyl-4,5-dihydro-1H-pyrazol-3-yl)thieno[2,3-b]pyridin-6(7H)-one] | < 50 | –
31 | CCC(=O)N1N=C(c2c(C)c3ccsc3[nH]c2=O)CC1c1cnc(OC)s1 (centres unmarked) [Example 30, 5-(5-(2-methoxythiazol-5-yl)-1-propionyl-4,5-dihydro-1H-pyrazol-3-yl)-4-methylthieno[2,3-b]pyridin-6(7H)-one] | ≥ 50 | –
32 | COc1ccc(C2CC(c3c(C)c4cc(Cl)ccc4[nH]c3=O)=NN2C(=O)C2CC2)cc1 (centres unmarked) [Example 2, 6-Chloro-3-(1-(cyclopropanecarbonyl)-5-(4-methoxyphenyl)-4,5-dihydro-1H-pyrazol-3-yl)-4-methylquinolin-2(1H)-one] | ≥ 50 | –
33 | CCC(=O)N1N=C(c2c(C)c3cnccc3[nH]c2=O)CC1c1ccc(C)cc1 (centres unmarked) [Example 85, 4-methyl-3-(1-propionyl-5-(p-tolyl)-4,5-dihydro-1H-pyrazol-3-yl)-1,6-naphthyridin-2(1H)-one] | ≥ 50 | –
34 | CCC(=O)N1N=C(c2c(C)c3ccccc3[nH]c2=O)CC1c1ccc(C)cc1 (racemic) [Example 60, 4-methyl-3-(1-propionyl-5-(p-tolyl)-4,5-dihydro-1H-pyrazol-3-yl)quinolin-2(1H)-one] | ≥ 50 | –
35 | CCC(=O)N1N=C(c2c(C)c3ccc(C)cc3[nH]c2=O)CC1c1ccc(C)cc1 (centres unmarked) [Example 75, 4,7-dimethyl-3-(1-propionyl-5-(p-tolyl)-4,5-dihydro-1H-pyrazol-3-yl)quinolin-2(1H)-one] | ≥ 50 | –
